Measured values from patent US8080665B2 (Chugai Seiyaku Kabushiki Kaisha, priority 2003, dated 2011).

What was measured:
hMCD = molecular target: T1, hMCD (Homo sapiens, UniProt O95822); experiment: In vitro MCD inhibitory assay; type: biochemical; conditions: read-out: Ki, in vitro MCD inhibitory activities
T1 sequence (O95822 40-493): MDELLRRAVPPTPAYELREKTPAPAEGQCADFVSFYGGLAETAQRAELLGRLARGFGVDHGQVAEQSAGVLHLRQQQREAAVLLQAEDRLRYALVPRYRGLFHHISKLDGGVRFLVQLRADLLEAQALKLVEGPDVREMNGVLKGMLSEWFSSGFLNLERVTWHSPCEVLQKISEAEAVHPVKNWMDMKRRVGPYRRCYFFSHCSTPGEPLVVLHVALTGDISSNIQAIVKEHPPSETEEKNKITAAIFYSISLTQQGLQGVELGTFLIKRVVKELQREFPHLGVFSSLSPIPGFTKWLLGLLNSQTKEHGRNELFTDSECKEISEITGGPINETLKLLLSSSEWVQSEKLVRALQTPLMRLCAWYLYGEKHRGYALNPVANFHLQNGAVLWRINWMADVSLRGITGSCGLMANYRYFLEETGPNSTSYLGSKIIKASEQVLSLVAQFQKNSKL
Excerpt: In Vitro MCD Inhibitory Assay
As shown in eq. 1-3, the establishment of the kinetic equilibrium between malate/NAD and oxaloacetate/NADH was catalyzed by malic dehydrogenase (eq. 2). […] The accumulation of NADH can be continuously followed by monitoring the increase of fluorescence emission at 460 nm on a fluorescence plate reader. The fluorescence plate reader was calibrated using the authentic acetyl-CoA from Sigma. For a typical 96-well plate assay, the increase in the fluorescence emission (λex=360 nm, λem=460 nm, for NADH) in each well was used to calculate the initial velocity of hMCD. Each 50 μL assay contained 10 mM phosphate buffered saline (Sigma), pH 7.4, 0.05% Tween-20, 25 mM K2HPO4—KH2PO4 (Sigma), 2 mM Malate (Sigma), 2 mM NAD (Boehringer Mannheim), 0.786 units of MD (Roche Chemicals), 0.028 unit of CS (Roche Chemicals), 5-10 nM hMCD, and varying amounts of MCA substrate. Assays were initiated by the addition of MCA, and the rates were corrected for the background rate determined in the absence of hMCD.

[1] = test system: Isolated Working Rat Hearts; experiment: Glucose oxidation in isolated working rat hearts
Procedure: Isolated Working Rat Heart Assay Protocol
Isolated working hearts from male Sprague-Dawley rats (300-350 g) are subjected to a 60-minute aerobic perfusion period. The working hearts are perfused with 95% O2, 5% CO2 with a modified Krebs-Henseleit solution containing 5 mM glucose; 100 μU/mL insulin; 3% fatty acid-free BSA; 2.5 mM free Ca^2+, and 0.4 to 1.2 mmol/L palmitate (Kantor et al., Circulation Research 86:580-588 (2000)). The test compound is added 5 minutes before the perfusion period. DMSO (0.05%) is used as control.
Measurement of Glucose Oxidation Rates
Samples were taken at 10-minute intervals for measurements of experimental parameters. Glucose oxidation rates are determined by the quantitative collection of ^14CO2 produced by hearts perfused with buffer containing [U14]-Glucose (R. Barr and G. Lopaschuk, in “Measurement of cardiovascular function”, McNeill, J. H. ed., Chapter 2, CRC press, New York (1997)). After the perfusion, the ^14CO2 from the perfusae is subsequently released by injecting 1 mL of perfusate into sealed test tube containing 1 mL of 9NH2SO4. The tube was sealed with a rubber stopper attached to a scintillation vial containing a piece of filter papers saturated with 300 μl of hyamine hydroxide. The scintillation vials with filter papers were then removed and Ecolite Scintillation Fluid added. Samples were counted by standard procedures as described above. Average rates of glucose oxidation for each phase of perfusion are expressed as μmol/min/g dry wt as described above.
Active compounds are characterized by an increase in glucose oxidation and/or decrease in fatty acid oxidation as compared to the control experiments (DMSO). The compounds that caused statistically significant increases in glucose oxidation and/or decrease in fatty acid oxidation are considered to be active. Statistical significance was calculated using the Student's t test for paired or unpaired samples, as appropriate. The results with P<0.05 are considered to be statistically significant.

[2] = test system: muscle (M) isoform of CPT-I; conditions: read-out: IC50 of malonyl-CoA inhibition of CPT-I; cited from earlier work
breast carcinoma cells = conditions: cited from earlier work

## CC(C)N(C(=O)NC1CCN(C(=O)OCc2ccccc2)CC1)c1ccc2nc(S)sc2c1 [CBM-000302130]
hMCD
  Ki: 0.011 µM

## CC(C)N(C(=O)NC1CCN(CCCC(F)(F)F)CC1)c1ccc2nc(S)sc2c1 [CBM-000302182]
hMCD
  Ki: 0.08 µM

## CC(C)N(C(=O)NC1CCN(S(=O)(=O)C(C)C)CC1)c1ccc2nc(S)sc2c1 [CBM-000302215, 1-Isopropyl-1-(2-mercapto-benzothiazol-6-yl)-3-[1-(propane-2-sulfonyl)-piperidin-4-yl]-urea]
hMCD
  Ki: 0.0191 µM

## CCCCOc1ccc(C(=O)N2CCC(NC(=O)N(c3ccc4nc(S)sc4c3)C(C)C)CC2)cc1 [CBM-000302216]
hMCD
  Ki: 0.0881 µM

## CC(C)N(C(=O)NC1CCN(C(=O)c2ccc(C(F)(F)F)cc2)CC1)c1ccc2nc(S)sc2c1 [CBM-000302217]
hMCD
  Ki: 0.0423 µM

## CC(C)N(C(=O)NC1CCN(C(=O)COc2ccccc2)CC1)c1ccc2nc(S)sc2c1 [CBM-000302218]
hMCD
  Ki: 0.0074 µM
[1]
  GOX (%), glucose oxidation rate relative to DMSO (100%): 236%

## CC(C)N(C(=O)NC1CCN(C(=O)Nc2ccc(C(F)(F)F)cc2)CC1)c1ccc2nc(S)sc2c1 [CBM-000302219]
hMCD
  Ki: 0.0305 µM

## CC(C)N(C(=O)NC1CCN(C(=O)CCc2ccccc2)CC1)c1ccc2nc(S)sc2c1 [CBM-000302220]
hMCD
  Ki: 0.0204 µM

## CCCNC(=O)N1CCC(NC(=O)N(c2ccc3nc(S)sc3c2)C(C)C)CC1 [CBM-000302274]
hMCD
  Ki: 0.0406 µM

## CC(C)N(C(=O)NC1CCN(C(=O)CCC2CCCC2)CC1)c1ccc2nc(S)sc2c1 [CBM-000302275]
hMCD
  Ki: 0.0224 µM

## CCCCS(=O)(=O)N1CCC(NC(=O)N(c2ccc3nc(S)sc3c2)C(C)C)CC1 [CBM-000302276]
hMCD
  Ki: 0.0007 µM
[1]
  GOX (%), glucose oxidation rate relative to DMSO (100%): 310%

## CC(C)N(C(=O)NC1CCN(S(=O)(=O)c2ccccc2)CC1)c1ccc2nc(S)sc2c1 [CBM-000302277]
hMCD
  Ki: 0.0028 µM

## CC(C)N(C(=O)NC1CCN(S(=O)(=O)c2ccc(OC(F)(F)F)cc2)CC1)c1ccc2nc(S)sc2c1 [CBM-000302278]
hMCD
  Ki: 0.105 µM

## CC(C)N(C(=O)NC1CCN(S(=O)(=O)c2ccc(C(F)(F)F)cc2)CC1)c1ccc2nc(S)sc2c1 [CBM-000302279]
hMCD
  Ki: 0.0616 µM

## CC(C)N(C(=O)NC1CCN(S(=O)(=O)c2cccc(C(F)(F)F)c2)CC1)c1ccc2nc(S)sc2c1 [CBM-000302280]
hMCD
  Ki: 0.0026 µM
[1]
  GOX (%), glucose oxidation rate relative to DMSO (100%): 683%

## CN(C(=O)NC1CCN(S(=O)(=O)c2ccccc2)CC1)c1ccc2nc(S)sc2c1 [CBM-000302281, 3-(1-Benzenesulfonyl-piperidin-4-yl)-1-(2-mercapto-benzothiazol-6-yl)-1-methyl-urea]
[1]
  GOX (%), glucose oxidation rate relative to DMSO (100%): 190%

## CC(C)CCC(=O)N1CCC(NC(=O)N(c2ccc3nc(S)sc3c2)C(C)C)CC1 [CBM-000302313, 1-isopropyl-1-(2-mercapto-benzothiazole-6-yl)-3-[1-(4-methyl-pentanolyl)-piperidin-4-yl]-urea]
hMCD
  Ki: 0.0235 µM

## CCCC(=O)N1CCC(NC(=O)N(c2ccc3nc(S)sc3c2)C(C)C)CC1 [CBM-000302314]
hMCD
  Ki: 0.0585 µM

## COC(=O)CCC(=O)N1CCC(NC(=O)N(c2ccc3nc(S)sc3c2)C(C)C)CC1 [CBM-000302316]
hMCD
  Ki: 0.0996 µM

## CC(C)N(C(=O)NC1CCN(S(=O)(=O)c2cccc(Cl)c2)CC1)c1ccc2nc(S)sc2c1 [CBM-000302342]
hMCD
  Ki: 0.0007 µM
[1]
  GOX (%), glucose oxidation rate relative to DMSO (100%): 285%

## CC(C)N(C(=O)NC1CCN(S(=O)(=O)c2cccc(C#N)c2)CC1)c1ccc2nc(S)sc2c1 [CBM-000302343]
hMCD
  Ki: 0.0038 µM
[1]
  GOX (%), glucose oxidation rate relative to DMSO (100%): 177%

## CC(C)N(C(=O)NC1CCN(S(=O)(=O)c2ccc(C(C)(C)C)cc2)CC1)c1ccc2nc(S)sc2c1 [CBM-000302344]
hMCD
  Ki: 0.133 µM

## CC(C)N(C(=O)NC1CCN(C(=O)c2ccc(F)cc2)CC1)c1ccc2nc(S)sc2c1 [CBM-000302348]
hMCD
  Ki: 0.0407 µM

## COc1ccc(C(=O)N2CCC(NC(=O)N(c3ccc4nc(S)sc4c3)C(C)C)CC2)cc1 [CBM-000302359]
hMCD
  Ki: 0.0072 µM

## CC(C)N(C(=O)NC1CCN(C(=O)c2ccco2)CC1)c1ccc2nc(S)sc2c1 [CBM-000302360]
hMCD
  Ki: 0.024 µM

## CC(C)N(C(=O)NC1CCN(c2ccc(OC(F)(F)F)cc2)CC1)c1ccc2nc(S)sc2c1 [CBM-000302361]
hMCD
  Ki: 0.0872 µM

## CC(C)Oc1ccc(S(=O)(=O)N2CCC(NC(=O)N(c3ccc4nc(S)sc4c3)C(C)C)CC2)cc1 [CBM-000302368]
hMCD
  Ki: 0.624 µM

## CC(C)N(C(=O)NC1CCN(S(=O)(=O)c2cccc(F)c2)CC1)c1ccc2nc(S)sc2c1 [CBM-000302369]
hMCD
  Ki: 0.0028 µM

## CCCc1ccc(S(=O)(=O)N2CCC(NC(=O)N(c3ccc4nc(S)sc4c3)C(C)C)CC2)cc1 [CBM-000302384]
hMCD
  Ki: 0.0661 µM

## COc1cccc(S(=O)(=O)N2CCC(NC(=O)N(c3ccc4nc(S)sc4c3)C(C)C)CC2)c1 [CBM-000302386]
hMCD
  Ki: 0.0013 µM

## CC(C)c1ccc(S(=O)(=O)N2CCC(NC(=O)N(c3ccc4nc(S)sc4c3)C(C)C)CC2)cc1 [CBM-000302387]
hMCD
  Ki: 0.125 µM

## CC(=O)c1ccc(S(=O)(=O)N2CCC(NC(=O)N(c3ccc4nc(S)sc4c3)C(C)C)CC2)cc1 [CBM-000302389]
hMCD
  Ki: 0.0843 µM

## CCc1ccc(S(=O)(=O)N2CCC(NC(=O)N(c3ccc4nc(S)sc4c3)C(C)C)CC2)cc1 [CBM-000302404]
hMCD
  Ki: 0.0275 µM

## CC(C)N(C(=O)NC1CCN(S(=O)(=O)Cc2ccccc2)CC1)c1ccc2nc(S)sc2c1 [CBM-000302405]
hMCD
  Ki: 0.0078 µM

## CC(C)N(C(=O)NC1CCN(S(=O)(=O)c2ccc(F)c(Cl)c2)CC1)c1ccc2nc(S)sc2c1 [CBM-000302406]
hMCD
  Ki: 0.0014 µM

## COc1ccc(S(=O)(=O)N2CCC(NC(=O)N(c3ccc4nc(S)sc4c3)C(C)C)CC2)cc1 [CBM-000302407]
hMCD
  Ki: 0.0175 µM

## CC(C)N(C(=O)NC1CCN(S(=O)(=O)c2ccc(C#N)cc2)CC1)c1ccc2nc(S)sc2c1 [CBM-000302424]
hMCD
  Ki: 0.123 µM

## CC(C)N(C(=O)NC1CCN(S(=O)(=O)c2ccc(F)cc2)CC1)c1ccc2nc(S)sc2c1 [CBM-000302425]
hMCD
  Ki: 0.0014 µM

## CC(C)N(C(=O)NC1CCN(S(=O)(=O)c2cnc(Cl)c(Br)c2)CC1)c1ccc2nc(S)sc2c1 [CBM-000302426]
hMCD
  Ki: 0.0193 µM

## CC(C)(COP(=O)(O)OP(=O)(O)OC[C@H]1O[C@@H](n2cnc3c(N)ncnc32)[C@H](O)[C@@H]1OP(=O)(O)O)[C@@H](O)C(=O)NCCC(=O)NCCSC(=O)CC(=O)O [Malonyl-CoA]
[2]
  IC50: 0.03 µM

## CCCCCCCCCCCCCCOc1ccc(C(=O)O)o1 [TOFA, 5-(tetradecyloxy)-2-furoic acid]
Breast carcinoma cells
  malonyl-CoA level, % of the control: 60%
